# Patent US20240325413A1, “FORMULATIONS FOR THE TREATMENT OF RESPIRATORY DISORDERS” (484 Science Corp, priority 2021, published 2024)
# Key:
# [1] = Next Generation Impactor (NGI) testing of pMDI prototype formulations; assay type: physicochemical; details: for Fine Particle Dose: Stages 3 to MOC; for Actual Emitted dose: Throat stage to MOC
# Protocol: The Next Generation Pharmaceutical Impactor (NGI) testing is performed using Copley and MSP instruments. Emitted dose or Ex-device is calculated as the total dose deposited in the NGI apparatus starting from Throat stage to Micro-orifice collector (MOC). The Fine Particle Dose (FPD) is calculated as the total dose deposited in Stages 3 to MOC of the NGI apparatus. Mass Median Aerodynamic Diameter (MMAD) and Geometric Standard Deviation (GSD) is calculated from aerodynamic particle size distribution of particles in different stages of the NGI apparatus.
# [2] = Total emitted dose of the APIs from pMDI prototype formulations, HPLC assay; assay type: physicochemical; design: unit not given here; details: pMDI Formulation 1-4; for emitted dose, Mean: Mean of ED 1 to ED 8
# Protocol: An optimized HPLC assay method was developed for the assay of prototype formulations.
# The total emitted dose from APIs ED 1 to ED 8 was then analyzed using the HPLC Assay.
SMILES,% Emitted dose ([1]; Formulation 1),% Fine Particle Dose ([1]; Formulation 1),GSD ([1]; Formulation 1),MMAD ([1]; Formulation 1),Fine Particle Dose ([1]; Formulation 1),Actual Emitted dose ([1]; Formulation 1),% Emitted dose ([1]; Formulation 2),% Fine Particle Dose ([1]; Formulation 2),GSD ([1]; Formulation 2),MMAD ([1]; Formulation 2),Fine Particle Dose ([1]; Formulation 2),% Emitted dose ([1]; Formulation 4),% Fine Particle Dose ([1]; Formulation 4),GSD ([1]; Formulation 4),MMAD ([1]; Formulation 4),Fine Particle Dose ([1]; Formulation 4),Actual Emitted dose ([1]; Formulation 4),emitted dose ([2]; ED 7),emitted dose ([2]; ED 8),"emitted dose, Mean [2]",further results
"C[N+]1(C)CCC(OC(=O)C(O)(c2ccccc2)C2CCCC2)C1 (stereo not shown) [Glycopyrronium, glycopyrronium, reference compound]",104%,29%,2,4.9 µm,7.8 µg,28.0 µg,116%,28%,2,5.15 µm,7.7 µg,104%,25%,2,5.65 µm,6.8 µg,28.1 µg,27.0,30.2,29.0,Actual Emitted dose ([1]; Formulation 2): 31.4 µg; % Emitted dose ([1]; Formulation 3): 106%; % Fine Particle Dose ([1]; Formulation 3): 31%; GSD ([1]; Formulation 3): 2; MMAD ([1]; Formulation 3): 5.1 µm; Fine Particle Dose ([1]; Formulation 3): 8.3 µg; Actual Emitted dose ([1]; Formulation 3): 28.6 µg; emitted dose ([2]; ED 1): 27.6; emitted dose ([2]; ED 2): 28.7; emitted dose ([2]; ED 3): 27.5; emitted dose ([2]; ED 4): 28.5; emitted dose ([2]; ED 5): 30.3; emitted dose ([2]; ED 6): 32.4
"CCCCCc1cc(O)c(C/C=C(\C)CCC=C(C)C)c(O)c1 [CBG, cannabigerol]",115%,43%,3,4.7 µm,129.5 µg,345.7 µg,109%,39%,3,4.65 µm,118.0 µg,106%,34%,3,5.25 µm,67.5 µg,212.1 µg,331.0,332.1,335.2,Actual Emitted dose ([1]; Formulation 2): 328.3 µg; % Emitted dose ([1]; Formulation 3): 111%; % Fine Particle Dose ([1]; Formulation 3): 43%; GSD ([1]; Formulation 3): 3; MMAD ([1]; Formulation 3): 4.5 µm; Fine Particle Dose ([1]; Formulation 3): 127.5 µg; Actual Emitted dose ([1]; Formulation 3): 331.6 µg; emitted dose ([2]; ED 3): 338.2; emitted dose ([2]; ED 4): 353.3; emitted dose ([2]; ED 5): 323.7; emitted dose ([2]; ED 6): 332.9
"CCCCCc1cc(O)c2c(c1)OC(C)(CCC=C(C)C)C=C2 (stereo not shown) [CBC, cannabichromene]",89%,36%,3,4.5 µm,108.6 µg,266.1 µg,,,,,,105%,36%,3,5.2 µm,71.1 µg,209.4 µg,262.4,269.8,266.1,
"CCCCCc1cc(O)c2c(c1)OC(C)(C)c1ccc(C)cc1-2 [CBN, cannabinol]",,,,,,,87%,35%,3,4.4 µm,105.8 µg,95%,34%,3,5 µm,68.2 µg,189.1 µg,255.7,263.5,259.6,Actual Emitted dose ([1]; Formulation 2): 259.6 µg
"C=C(C)[C@@H]1CCC(C)=C[C@H]1c1c(O)cc(CCCCC)cc1O [CBD, cannabidiol, reference compound]",104%,41%,3,4.6 µm,122.8 µg,312.1 µg,96%,37%,3,4.5 µm,111.0 µg,96%,36%,3,4.75 µm,109.5 µg,288.1 µg,301.6,304.3,298.0,Actual Emitted dose ([1]; Formulation 2): 288.7 µg; % Emitted dose ([1]; Formulation 3): 101%; % Fine Particle Dose ([1]; Formulation 3): 40%; GSD ([1]; Formulation 3): 3; MMAD ([1]; Formulation 3): 4.4 µm; Fine Particle Dose ([1]; Formulation 3): 120.8 µg; Actual Emitted dose ([1]; Formulation 3): 303.0 µg; emitted dose ([2]; ED 1): 287.0; emitted dose ([2]; ED 2): 289.2; emitted dose ([2]; ED 3): 308.0; emitted dose ([2]; ED 4): 316.2; emitted dose ([2]; ED 5): 284.9; emitted dose ([2]; ED 6): 292.6
"C=C(C)[C@@H]1CCC(C)=C[C@H]1c1c(O)cc(CCC)cc1O [CBDV, cannabidivarin]",,,,,,,,,,,,98%,33%,3,5.1 µm,66.5 µg,195.2 µg,265.4,278.5,272.0,% Emitted dose ([1]; Formulation 3): 91%; % Fine Particle Dose ([1]; Formulation 3): 36%; GSD ([1]; Formulation 3): 3; MMAD ([1]; Formulation 3): 4.6 µm; Fine Particle Dose ([1]; Formulation 3): 108.0 µg; Actual Emitted dose ([1]; Formulation 3): 272.0 µg
